The text below walks through data of US20140343000A1 (priority 2011, published 2014).

Counter-ions that a name gives are not always drawn.

The first assay concerns recombinant NL4-3 virus (Renilla luciferase in nef, Gag P373S; NLRluc) in MT-2 cells. The assay is described as follows: whole plant or invertebrate. As to conditions: Renilla, NL43. It counts as cell-based, HIV. The method in brief:
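Virus from 293T transfection, titered in MT-2 by luciferase. MT-2 (RPMI, 10% HI-FBS) infected ± inhibitor serial dilutions, 4-5 d. Readout: Dual Luciferase premix (lysis:reagent:Stop & Glo 2:1:1), immediate luminescence.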
The EC50 is the concentration giving half of the maximal effect. On to `C=C(C)[C@@H]1CC[C@]2(NCCNc3cccnn3)CC[C@]3(C)[C@H](CC[C@@H]4[C@@]5(C)CC=C(c6ccc(C(=O)O)cc6)C(C)(C)[C@@H]5CC[C@]43C)[C@@H]12` [Example 200, 4-((1R,3aS,5aR,5bR,7aR,11aS,11bR,13aR,13bR)-5a,5b,8,8,11a-pentamethyl-1-(prop-1-en-2-yl)-3a-(2-(pyridazin-3-ylamino)ethylamino)-2,3,3a,4,5,5a,5b,6,7,7a,8,11,11a,11b,12,13,13a,13b-octadecahydro-1H-cyclopenta[a]chrysen-9-yl)benzoic acid], for which the EC50 is less than 0.1 µM.

The assay is the same for the next values; noted with them: Renilla, NL43, luciferase activity in cells infected for 4-5 days with NLRluc recombinants, serial dilutions of inhibitor; class symbols (key in Table 1); read-out: EC50.
For the compound `C=C(C)[C@@H]1CC[C@]2(NCCNc3ccc(C)nn3)CC[C@]3(C)[C@H](CC[C@@H]4[C@@]5(C)CC=C(c6ccc(C(=O)O)cc6)C(C)(C)[C@@H]5CC[C@]43C)[C@@H]12` [Example 194, 4-((1R,3aS,5aR,5bR,7aR,11aS,11bR,13aR,13bR)-5a,5b,8,8,11a-pentamethyl-3a-(2-(6-methylpyridazin-3-ylamino)ethylamino)-1-(prop-1-en-2-yl)-2,3,3a,4,5,5a,5b,6,7,7a,8,11,11a,11b,12,13,13a,13b-octadecahydro-1H-cyclopenta[a]chrysen-9-yl)benzoic acid], the EC50 is less than 0.1 µM.
Same read-out and setting: the figure for `C=C(C)[C@@H]1CC[C@]2(NCCNC(C)=O)CC[C@]3(C)[C@H](CC[C@@H]4[C@@]5(C)CC=C(c6ccc(C(=O)O)cc6)C(C)(C)[C@@H]5CC[C@]43C)[C@@H]12` [Example 195, 4-((1R,3aS,5aR,5bR,7aR,11aS,11bR,13aR,13bR)-3a-(2-acetamidoethylamino)-5a,5b,8,8,11a-pentamethyl-1-(prop-1-en-2-yl)-2,3,3a,4,5,5a,5b,6,7,7a,8,11,11a,11b,12,13,13a,13b-octadecahydro-1H-cyclopenta[a]chrysen-9-yl)benzoic acid] is less than 0.1 µM.
The same measure, in the same setting: the figure for `C=C(C)[C@@H]1CC[C@]2(NCCNc3ccc(SC)cn3)CC[C@]3(C)[C@H](CC[C@@H]4[C@@]5(C)CC=C(c6ccc(C(=O)O)cc6)C(C)(C)[C@@H]5CC[C@]43C)[C@@H]12` [Example 196, 4-((1R,3aS,5aR,5bR,7aR,11aS,11bR,13aR,13bR)-5a,5b,8,8,11a-pentamethyl-3a-(2-(5-(methylthio)pyridin-2-ylamino)ethylamino)-1-(prop-1-en-2-yl)-2,3,3a,4,5,5a,5b,6,7,7a,8,11,11a,11b,12,13,13a,13b-octadecahydro-1H-cyclopenta[a]chrysen-9-yl)benzoic acid] is less than 0.1 µM; for `C=C(C)[C@@H]1CC[C@]2(NCCNc3nccc(SC)n3)CC[C@]3(C)[C@H](CC[C@@H]4[C@@]5(C)CC=C(c6ccc(C(=O)O)cc6)C(C)(C)[C@@H]5CC[C@]43C)[C@@H]12` [Example 197, 4-((1R,3aS,5aR,5bR,7aR,11aS,11bR,13aR,13bR)-5a,5b,8,8,11a-pentamethyl-3a-(2-(4-(methylthio)pyrimidin-2-ylamino)ethylamino)-1-(prop-1-en-2-yl)-2,3,3a,4,5,5a,5b,6,7,7a,8,11,11a,11b,12,13,13a,13b-octadecahydro-1H-cyclopenta[a]chrysen-9-yl)benzoic acid] it is less than 0.1 µM; for `C=C(C)[C@@H]1CC[C@]2(NCCNc3cccc(SC)n3)CC[C@]3(C)[C@H](CC[C@@H]4[C@@]5(C)CC=C(c6ccc(C(=O)O)cc6)C(C)(C)[C@@H]5CC[C@]43C)[C@@H]12` [Example 198, 4-((1R,3aS,5aR,5bR,7aR,11aS,11bR,13aR,13bR)-5a,5b,8,8,11a-pentamethyl-3a-(2-(6-(methylthio)pyridin-2-ylamino)ethylamino)-1-(prop-1-en-2-yl)-2,3,3a,4,5,5a,5b,6,7,7a,8,11,11a,11b,12,13,13a,13b-octadecahydro-1H-cyclopenta[a]chrysen-9-yl)benzoic acid] it is less than 0.1 µM.
Still for that read-out and setting: the figure for `C=C(C)[C@@H]1CC[C@]2(NCCNc3ncccn3)CC[C@]3(C)[C@H](CC[C@@H]4[C@@]5(C)CC=C(c6ccc(C(=O)O)cc6)C(C)(C)[C@@H]5CC[C@]43C)[C@@H]12` [Example 199, 4-((1R,3aS,5aR,5bR,7aR,11aS,11bR,13aR,13bR)-5a,5b,8,8,11a-pentamethyl-1-(prop-1-en-2-yl)-3a-(2-(pyrimidin-2-ylamino)ethylamino)-2,3,3a,4,5,5a,5b,6,7,7a,8,11,11a,11b,12,13,13a,13b-octadecahydro-1H-cyclopenta[a]chrysen-9-yl)benzoic acid] is less than 0.1 µM.
For the compound `C=C(C)[C@@H]1CC[C@]2(NCCNc3ccc(S(C)(=O)=O)cn3)CC[C@]3(C)[C@H](CC[C@@H]4[C@@]5(C)CC=C(c6ccc(C(=O)O)cc6)C(C)(C)[C@@H]5CC[C@]43C)[C@@H]12` [Example 201, 4-((1R,3aS,5aR,5bR,7aR,11aS,11bR,13aR,13bR)-5a,5b,8,8,11a-pentamethyl-3a-(2-(5-(methylsulfonyl)pyridin-2-ylamino)ethylamino)-1-(prop-1-en-2-yl)-2,3,3a,4,5,5a,5b,6,7,7a,8,11,11a,11b,12,13,13a,13b-octadecahydro-1H-cyclopenta[a]chrysen-9-yl)benzoic acid], the EC50 is less than 0.1 µM.
Still for that read-out and setting: the figure for `C=C(C)[C@@H]1CC[C@]2(N)CC[C@]3(C)[C@H](CC[C@@H]4[C@@]5(C)CC=C(c6ccc(C(=O)O)c(F)c6)C(C)(C)[C@@H]5CC[C@]43C)[C@@H]12` [Example A1, 4-((1R,3aS,5aR,5bR,7aR,11aS,11bR,13aR,13bR)-3a-amino-5a,5b,8,8,11a-pentamethyl-1-(prop-1-en-2-yl)-2,3,3a,4,5,5a,5b,6,7,7a,8,11,11a,11b,12,13,13a,13b-octadecahydro-1H-cyclopenta[a]chrysen-9-yl)-2-fluorobenzoic acid] is less than 0.1 µM; for `C=C(C)[C@@H]1CC[C@]2(NCCN3CCS(=O)(=O)CC3)CC[C@]3(C)[C@H](CC[C@@H]4[C@@]5(C)CC=C(c6ccc(C(=O)O)c(F)c6)C(C)(C)[C@@H]5CC[C@]43C)[C@@H]12` [Example A2, benzoic acid, 4-[(1R,3aS,5aR,5bR,7aR,11aS,11bR,13aR,13bR)-3a-[[2-(1,1-dioxido-4-thiomorpholinyl)ethyl]amino]-2,3,3a,4,5,5a,5b,6,7,7a,8,11,11a,11b,12,13,13a,13b-octadecahydro-5a,5b,8,8,11a-pentamethyl-1-(1-methylethenyl)-1H-cyclopenta[a]chrysen-9-yl]-2-fluoro-, HCl] it is less than 0.1 µM.
Same read-out and setting: the figure for `C=C(C)[C@@H]1CC[C@]2(NCCN3CCOCC3)CC[C@]3(C)[C@H](CC[C@@H]4[C@@]5(C)CC=C(c6ccc(C(=O)O)c(F)c6)C(C)(C)[C@@H]5CC[C@]43C)[C@@H]12` [Example A3, 2-fluoro-4-((1R,3aS,5aR,5bR,7aR,11aS,11bR,13aR,13bR)-5a,5b,8,8,11a-pentamethyl-3a-(2-morpholinoethylamino)-1-(prop-1-en-2-yl)-2,3,3a,4,5,5a,5b,6,7,7a,8,11,11a,11b,12,13,13a,13b-octadecahydro-1H-cyclopenta[a]chrysen-9-yl)benzoic acid] is less than 0.1 µM.
Take `C=C(C)[C@@H]1CC[C@]2(NCCN3CCCC3=O)CC[C@]3(C)[C@H](CC[C@@H]4[C@@]5(C)CC=C(c6ccc(C(=O)O)c(F)c6)C(C)(C)[C@@H]5CC[C@]43C)[C@@H]12` [Example A4, 2-fluoro-4-((1R,3aS,5aR,5bR,7aR,11aS,11bR,13aR,13bR)-5a,5b,8,8,11a-pentamethyl-3a-(2-(2-oxopyrrolidin-1-yl)ethylamino)-1-(prop-1-en-2-yl)-2,3,3a,4,5,5a,5b,6,7,7a,8,11,11a,11b,12,13,13a,13b-octadecahydro-1H-cyclopenta[a]chrysen-9-yl)benzoic acid]: the EC50 was less than 0.1 µM.
The same measure, in the same setting: the figure for `C=C(C)[C@@H]1CC[C@]2(NCCCN3CCCC3=O)CC[C@]3(C)[C@H](CC[C@@H]4[C@@]5(C)CC=C(c6ccc(C(=O)O)c(F)c6)C(C)(C)[C@@H]5CC[C@]43C)[C@@H]12` [Example A5, 2-fluoro-4-((1R,3aS,5aR,5bR,7aR,11aS,11bR,13aR,13bR)-5a,5b,8,8,11a-pentamethyl-3a-(3-(2-oxopyrrolidin-1-yl)propylamino)-1-(prop-1-en-2-yl)-2,3,3a,4,5,5a,5b,6,7,7a,8,11,11a,11b,12,13,13a,13b-octadecahydro-1H-cyclopenta[a]chrysen-9-yl)benzoic acid] is less than 0.1 µM.
The same measure, in the same setting: the figure for `C=C(C)[C@@H]1CC[C@]2(NCCCN3CCS(=O)(=O)CC3)CC[C@]3(C)[C@H](CC[C@@H]4[C@@]5(C)CC=C(c6ccc(C(=O)O)c(F)c6)C(C)(C)[C@@H]5CC[C@]43C)[C@@H]12` [Example A6, benzoic acid, 4-[(1R,3aS,5aR,5bR,7aR,11aS,11bR,13aR,13bR)-3a-[[3-(1,1-dioxido-4-thiomorpholinyl)propyl]amino]-2,3,3a,4,5,5a,5b,6,7,7a,8,11,11a,11b,12,13,13a,13b-octadecahydro-5a,5b,8,8,11a-pentamethyl-1-(1-methylethenyl)-1H-cyclopenta[a]chrysen-9-yl]-2-fluoro-] is less than 0.1 µM; for `C=C(C)[C@@H]1CC[C@]2(NCCN3CCN(S(C)(=O)=O)CC3)CC[C@]3(C)[C@H](CC[C@@H]4[C@@]5(C)CC=C(c6ccc(C(=O)O)c(F)c6)C(C)(C)[C@@H]5CC[C@]43C)[C@@H]12` [Example A8] it is less than 0.1 µM; for `C=C(C)[C@@H]1CC[C@]2(N)CC[C@]3(C)[C@H](CC[C@@H]4[C@@]5(C)CC=C(c6ccc(C(=O)O)s6)C(C)(C)[C@@H]5CC[C@]43C)[C@@H]12` [Example B1, 5-((1R,3aS,5aR,5bR,7aR,11aS,11bR,13aR,13bR)-3a-amino-5a,5b,8,8,11a-pentamethyl-1-(prop-1-en-2-yl)-2,3,3a,4,5,5a,5b,6,7,7a,8,11,11a,11b,12,13,13a,13b-octadecahydro-1H-cyclopenta[a]chrysen-9-yl)thiophene-2-carboxylic acid] it is less than 0.1 µM.
